Reference: ChEMBL document CHEMBL1131026, “D-amino acid containing, high-affinity inhibitors of recombinant human calpain I” (J Med Chem, 1998)
Square brackets hold non-standard residues; d marks the D form. Peptide text beside a SMILES is read from it. * marks the point of attachment. d(hPhe) = N[C@H](CCc1ccccc1)C(=O)O; d2Thi = N[C@H](Cc1cccs1)C(=O)O; dPhg = N[C@@H](C(=O)O)c1ccccc1; Abu = CC[C@H](N)C(=O)O; Bn = c1ccc(C*)cc1; Ms = CS(=O)(=O)*

Experiments:
[1] = molecular target: T1, Calpain-1 catalytic subunit (Homo sapiens, UniProt P07384); assay: Inhibitory activity against recombinant human Calpain-I receptor
T1 sequence (P07384 whole entry): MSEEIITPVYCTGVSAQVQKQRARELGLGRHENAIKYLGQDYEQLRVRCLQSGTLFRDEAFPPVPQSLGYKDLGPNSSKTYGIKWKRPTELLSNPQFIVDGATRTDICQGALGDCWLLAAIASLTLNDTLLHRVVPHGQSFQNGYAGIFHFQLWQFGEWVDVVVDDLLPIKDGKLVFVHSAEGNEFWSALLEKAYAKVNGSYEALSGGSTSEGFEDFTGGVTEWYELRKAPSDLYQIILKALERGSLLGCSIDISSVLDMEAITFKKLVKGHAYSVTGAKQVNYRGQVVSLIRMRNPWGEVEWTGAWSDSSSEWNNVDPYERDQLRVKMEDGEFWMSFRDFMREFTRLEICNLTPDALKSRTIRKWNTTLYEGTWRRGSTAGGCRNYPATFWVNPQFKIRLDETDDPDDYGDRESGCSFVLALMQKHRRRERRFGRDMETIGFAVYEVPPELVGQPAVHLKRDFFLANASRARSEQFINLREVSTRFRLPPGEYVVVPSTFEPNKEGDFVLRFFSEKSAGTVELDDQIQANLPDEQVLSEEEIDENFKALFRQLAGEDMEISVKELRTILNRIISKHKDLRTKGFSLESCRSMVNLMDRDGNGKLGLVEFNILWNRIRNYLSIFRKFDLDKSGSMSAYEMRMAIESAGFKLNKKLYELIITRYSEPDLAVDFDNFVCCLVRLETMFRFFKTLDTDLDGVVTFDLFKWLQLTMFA

[2] = molecular target: Chymotrypsinogen A (Bos taurus) (UniProt P00766); assay: Inhibitory activity against Bovine pancreas alpha-chymotrypsin at 10 uM
Cathepsin B = Cathepsin B (Homo sapiens, UniProt P07858); assay: Inhibitory activity against cathepsin B receptor in human liver
[3] = molecular target: T1, Calpain-1 catalytic subunit; assay: Inhibition of intracellular Calpain-I receptor using intact cell assay system; format: cell-based
[4] = molecular target: Prothrombin (Homo sapiens) (UniProt P00734); assay: Inhibitory activity against human plasma thrombin at 10 uM; format: cell-free

Row | SMILES | Ki [1] [nM] | inhibition [2] [%] | Ki (Cathepsin B) [nM] | IC50 [3] [nM] | inhibition [4] [%]
1 | O=C[C@H](Cc1ccccc1)NC(=O)[C@@H](COCc1ccccc1)NS(=O)(=O)c1ccccc1 | 22 | – | – | – | –
2 | CS(=O)(=O)N[C@H](COCc1ccccc1)C(=O)N[C@H](C=O)Cc1ccccc1 | 8 | 23 | 32 | 700 | 0
3 | CCNC(=O)C(=O)[C@H](Cc1ccccc1)NC(=O)[C@@H](COCc1ccccc1)NS(C)(=O)=O | 130 | – | – | – | –
4 | CN([C@H](COCc1ccccc1)C(=O)N[C@H](C=O)Cc1ccccc1)S(C)(=O)=O | 370 | – | – | – | –
5 | CCS(=O)(=O)N[C@H](COCc1ccccc1)C(=O)N[C@H](C=O)Cc1ccccc1 | 9 | 15 | 45 | 400 | 9
6 | CS(=O)(=O)N[C@H](COCc1ccccc1)C(=O)N[C@H](C=O)CCCCNS(=O)(=O)c1ccccc1 | 2 | 13 | 4 | 400 | 0
7 | CC(OCc1ccccc1)[C@@H](NS(C)(=O)=O)C(=O)N[C@H](C=O)Cc1ccccc1 (some centres not stated) | 9 | 3 | 44 | 500 | 0
8 | O=C[C@H](Cc1ccccc1)NC(=O)[C@@H](COCc1ccccc1)NS(=O)(=O)c1cccs1 | 9 | – | – | – | –
9 | CS(=O)(=O)N[C@H](CS(=O)(=O)Cc1ccccc1)C(=O)N[C@H](C=O)Cc1ccccc1 | 11 | – | – | – | –
10 | CS(=O)(=O)N[C@H](Cc1cccs1)C(=O)N[C@H](C=O)Cc1ccccc1 (Ms-[d2Thi]-Phe-aldehyde) | 11 | 0 | 23 | 300 | 0
11 | CS(=O)(=O)N[C@H](CCc1ccccc1)C(=O)N[C@H](C=O)Cc1ccccc1 (Ms-[d(hPhe)]-Phe-aldehyde) | 28 | – | – | – | –
12 | CS(=O)(=O)N[C@H](CSCc1ccccc1)C(=O)N[C@H](C=O)Cc1ccccc1 (Ms-[dC](Bn)-Phe-aldehyde) | 6 | 16 | 41 | 800 | 7
13 | CS(=O)(=O)N[C@H](Cc1ccccc1)C(=O)N[C@H](C=O)Cc1ccccc1 (Ms-[dF]-Phe-aldehyde) | 11 | 12 | 120 | 600 | 0
14 | CC(C)C[C@@H](NS(C)(=O)=O)C(=O)N[C@H](C=O)Cc1ccccc1 (Ms-[dL]-Phe-aldehyde) | 29 | – | – | – | –
15 | CS(=O)(=O)N[C@@H](C(=O)N[C@H](C=O)Cc1ccccc1)c1ccccc1 (Ms-[dPhg]-Phe-aldehyde) | 9 | – | – | – | –
16 | CC(C)C[C@@H](C=O)NC(=O)[C@@H](COCc1ccccc1)NS(C)(=O)=O (Ms-[dS](Bn)-Leu-aldehyde) | 66 | – | – | – | –
17 | CS(=O)(=O)N[C@H](COCc1ccccc1)C(=O)N[C@H](C=O)Cc1ccc(OCc2ccccc2)cc1 (Ms-[dS](Bn)-Tyr(Bn)-aldehyde) | 4 | 0 | 45 | 700 | 0
18 | CC[C@@H](C=O)NC(=O)[C@@H](COCc1ccccc1)NS(C)(=O)=O (Ms-[dS](Bn)-[Abu]-aldehyde) | 36 | – | – | – | –
19 | CS(=O)(=O)N[C@H](Cc1c[nH]c2ccccc12)C(=O)N[C@H](C=O)Cc1ccccc1 (Ms-[dW]-Phe-aldehyde) | 10 | – | – | – | –
20 | CS(=O)(=O)NC(COCc1ccccc1)C(=O)N[C@H](C=O)Cc1ccccc1 (single isomer, unassigned) | 41 | – | – | – | –
